Laboratory results as given in EP4700025A1, “AMIDE COMPOUND, PHARMACEUTICAL COMPOSITION COMPRISING SAME, AND USE THEREOF” (Suzhou Genhouse Bio Co., Ltd., priority 2023, dated 2024).
Like-named read-outs stand apart in the source and are kept apart here.

What was measured:
[1] = target: T1, CYP450 1A2 (Homo sapiens, UniProt P05177); test: Inhibition of human liver microsome CYP450 enzyme 1A2; assay type: in vitro ADME
T1 construct: from tissue; host or cells: human liver microsomes
T1 sequence (P05177 1-516): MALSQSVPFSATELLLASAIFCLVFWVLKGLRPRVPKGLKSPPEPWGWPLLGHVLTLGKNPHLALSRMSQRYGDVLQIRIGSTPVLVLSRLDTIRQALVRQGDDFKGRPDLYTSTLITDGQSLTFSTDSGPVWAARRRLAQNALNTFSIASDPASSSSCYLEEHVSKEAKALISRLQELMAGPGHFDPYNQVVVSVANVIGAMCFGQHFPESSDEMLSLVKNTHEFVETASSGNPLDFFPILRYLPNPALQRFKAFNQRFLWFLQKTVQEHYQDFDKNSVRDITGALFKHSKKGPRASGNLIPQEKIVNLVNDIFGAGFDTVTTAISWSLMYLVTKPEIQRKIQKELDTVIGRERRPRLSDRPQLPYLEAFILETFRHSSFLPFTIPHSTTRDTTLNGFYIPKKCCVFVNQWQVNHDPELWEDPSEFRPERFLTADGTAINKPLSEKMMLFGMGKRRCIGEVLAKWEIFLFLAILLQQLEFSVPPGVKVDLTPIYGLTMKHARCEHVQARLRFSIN
Protocol: (§1) 100 mM K-Buffer: 9.5 mL of stock solution A was mixed with 40.5 mL of stock solution B, the total volume was adjusted to 500 mL with ultrapure water, and the buffer was titrated to pH 7.4 with KOH or H3PO4. • Starting material A (1 M potassium dihydrogen phosphate): 136.5 g of potassium dihydrogen phosphate in 1 L of water; • Stock solution B ([…]): 174.2 g of potassium dihydrogen phosphate in 1 L of water.
(§2) The test substance powder was prepared into a stock solution at a certain concentration with DMSO or another organic solvent, which was then further diluted with a suitable organic solvent.
(§3) The liver microsomal in vitro incubation system for the CYP450 enzyme metabolism phenotype study was a biochemical reaction of the prepared liver microsomes supplemented with a redox coenzyme and an enzyme-specific selective inhibitor under simulated physiological temperature and physiological environment conditions.
(§4) The concentration of the parent drug or a metabolite thereof in the incubation solution was determined by LC-MS/MS. and the IC50 value was calculated.

[2] = system: HCT-116-MTAP^-/- cells; test: Pharmacodynamic study, HCT-116-MTAP^-/- subcutaneous xenograft; assay type: in vivo, mouse; conditions: HCT-116-MTAP^-/- xenograft
Protocol: Human colon cancer HCT-116-MTAP^-1- cells were cultured in monolayer in vitro using the McCoy 5A culture medium (HyClone) containing 10% fetal bovine serum (BI) and 1% penicillin and streptomycin (Beyotime) in an incubator at 37 °C with 5% CO2. The cells were digested with trypsin 2 to 3 times weekly for passaging. When the saturation degree of the cells was 80% to 90%, the cells were collected, counted, and inoculated. 5 × 10^6 (0.1 mL) HCT-116-MTAP^-/- cells were subcutaneously inoculated on the right back of each mouse. On about day 15 after inoculation of the cells, the mean tumor volume reached 172 mm^3. The mice were randomly grouped for administration (the animals were divided into an administration group and a control group, with 6 animals in each group). The day of grouping was designated as d0, and intragastric administration was started on d1. The administration was performed once daily at an administration volume of 10 mL/kg. Vehicle control was administered to the control group. The tumor volume was measured 2 to 3 times weekly, and meanwhile, the mice were weighed and the data were recorded; daily observations were made to record the body surface signs of the mice. After the experiment was completed, the tumors were collected, weighed, and photographed for recording.
Calculation formula for tumor volume: Tumor volume (mm^3) = 1/2 × (a×b^2) [formula] (note: a represents long diameter and b represents short diameter) [formula]

[3] = target: T2, CYP450 2C19 (Homo sapiens, UniProt P33261); test: Inhibition of human liver microsome CYP450 enzyme 2C19; assay type: in vitro ADME
T2 construct: from tissue; host or cells: human liver microsomes
T2 sequence (P33261 whole entry): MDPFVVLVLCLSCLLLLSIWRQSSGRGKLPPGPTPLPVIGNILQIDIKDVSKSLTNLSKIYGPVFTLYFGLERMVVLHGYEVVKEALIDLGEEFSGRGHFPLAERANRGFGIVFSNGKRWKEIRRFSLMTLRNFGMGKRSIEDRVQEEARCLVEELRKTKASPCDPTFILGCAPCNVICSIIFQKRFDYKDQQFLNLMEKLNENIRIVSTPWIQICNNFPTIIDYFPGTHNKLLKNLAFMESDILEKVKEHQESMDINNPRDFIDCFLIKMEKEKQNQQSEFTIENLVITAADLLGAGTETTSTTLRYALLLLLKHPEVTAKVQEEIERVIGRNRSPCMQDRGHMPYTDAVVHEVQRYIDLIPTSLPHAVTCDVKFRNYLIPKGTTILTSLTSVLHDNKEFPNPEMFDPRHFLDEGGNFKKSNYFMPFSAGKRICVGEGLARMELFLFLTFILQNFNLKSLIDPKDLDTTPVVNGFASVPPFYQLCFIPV
Protocol: as §1, §2, §3, §4

[4] = target: T3, hERG Potassium Ion Channel (Homo sapiens, UniProt Q12809); test: Effect on hERG potassium ion channel (whole-cell patch clamp, HEK293 cells); assay type: cell-based; conditions: human, whole-cell patch clamp (Qpatch), room temperature
T3 construct: expressed in transfected cells; host or cells: HEK293
T3 sequence (Q12809 whole entry): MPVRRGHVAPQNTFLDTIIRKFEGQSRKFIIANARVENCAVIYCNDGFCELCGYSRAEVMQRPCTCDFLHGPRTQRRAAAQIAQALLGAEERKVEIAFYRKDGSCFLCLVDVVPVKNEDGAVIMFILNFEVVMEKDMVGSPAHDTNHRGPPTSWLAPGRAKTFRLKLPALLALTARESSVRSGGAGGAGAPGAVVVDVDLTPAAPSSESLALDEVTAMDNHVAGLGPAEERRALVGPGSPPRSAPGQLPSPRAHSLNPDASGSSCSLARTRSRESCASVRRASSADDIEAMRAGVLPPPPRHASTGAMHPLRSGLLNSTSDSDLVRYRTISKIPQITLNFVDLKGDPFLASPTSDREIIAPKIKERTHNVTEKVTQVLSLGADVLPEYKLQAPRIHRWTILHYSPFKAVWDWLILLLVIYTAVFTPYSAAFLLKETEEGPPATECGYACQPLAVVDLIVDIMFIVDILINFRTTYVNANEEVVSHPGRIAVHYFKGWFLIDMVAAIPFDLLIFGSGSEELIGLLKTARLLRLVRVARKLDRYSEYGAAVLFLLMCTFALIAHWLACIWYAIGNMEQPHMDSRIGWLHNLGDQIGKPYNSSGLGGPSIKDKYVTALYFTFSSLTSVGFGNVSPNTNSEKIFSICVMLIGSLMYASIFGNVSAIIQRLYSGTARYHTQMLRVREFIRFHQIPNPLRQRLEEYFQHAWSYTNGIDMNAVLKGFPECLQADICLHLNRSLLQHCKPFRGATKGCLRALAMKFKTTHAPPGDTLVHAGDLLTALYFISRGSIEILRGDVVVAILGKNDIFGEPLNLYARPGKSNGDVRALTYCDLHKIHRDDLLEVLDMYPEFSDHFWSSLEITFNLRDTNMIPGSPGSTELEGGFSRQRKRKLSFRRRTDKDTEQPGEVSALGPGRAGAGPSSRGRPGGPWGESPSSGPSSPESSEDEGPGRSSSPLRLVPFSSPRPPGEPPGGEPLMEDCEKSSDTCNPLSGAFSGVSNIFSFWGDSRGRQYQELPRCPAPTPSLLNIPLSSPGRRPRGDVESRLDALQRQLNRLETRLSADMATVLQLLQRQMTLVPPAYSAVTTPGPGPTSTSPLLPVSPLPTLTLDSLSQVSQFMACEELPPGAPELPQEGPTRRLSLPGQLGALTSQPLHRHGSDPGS
Protocol: HEK293 cells were cultured in a DMEM medium containing 10% fetal bovine serum and 0.8 mg/mL G418 at 37 °C with 5% CO2. The cells were digested by TrypLE™ Express and then centrifuged. The cell density was adjusted to 2 × 10^6 cells/mL. The cells were then gently mixed for 15 to 20 min using a shaker equilibrated at room temperature, and subjected to a patch clamp assay on a machine. The culture medium of the prepared cells was replaced with extracellular fluid. The intracellular fluid and the extracellular fluid were taken from the fluid pool and added to the intracellular fluid pool and the cell and test substance pool of the QPlate chip, respectively. The voltage stimulation of the whole-cell hERG potassium current was recorded by the whole-cell patch clamp, and the experimental data were collected and stored by Qpatch. […] The current detected in compound-free extracellular fluid for each cell served as its own control group, and the detection was repeated twice independently using at least two cells per concentration. […] For data analysis, the current after the action of each drug concentration and the current of the blank control were standardized ((Peak tail currentcompound)/(Peak tail currentvehicle)) [formula] , and then the inhibition rate corresponding to each drug concentration was calculated (1−(Peak tail currentcompound)/(Peak tail currentvehicle)) [formula] . […]

IC50 ([1]; human liver microsomes, 1A2, read-out: IC50) [µM]	IC50 ([3]; human liver microsomes, 2C19, read-out: IC50) [µM]	Structure (SMILES)	IC50 ([1]; human, microsomes, pH 7.4) [µM]	Day 28 TGI ([2]; 10 mpk PO QD) [%]	Day 28 TGI ([2]; 30 mpk PO QD) [%]	IC50 ([3]; human, microsomes, pH 7.4) [µM]	IC50 [4] [µM]
–	–	Cn1ncc2c(N)nc3cc(F)c(C(=O)N4CCOC[C@@H]4c4ccc5c(c4)OC(F)(F)O5)cc3c21 [Example I-7]	> 10	84	91	> 10	–
> 10	> 10	Cn1ncc2c(N)nc3cc(F)c(C(=O)N(Cc4ccc5c(c4)OC(F)(F)O5)C4CC4)cc3c21 [Example I-16]	–	75	92	–	–
–	–	Cn1ncc2c(N)nc3cnc(C(=O)N4CCOC[C@@H]4c4ccc5c(c4)OC(F)(F)O5)cc3c21 [Example I-38]	–	–	–	–	22
